Measured values: article PMC2957478 (Bioorganic & medicinal chemistry letters, 2009)

Biological target: PAI-1 (Homo sapiens, UniProt P05121)
Conditions: for inhibitory activity towards PAI-1 (in words): in vitro

Chain of PAI-1 (P05121 24-402, species assumed): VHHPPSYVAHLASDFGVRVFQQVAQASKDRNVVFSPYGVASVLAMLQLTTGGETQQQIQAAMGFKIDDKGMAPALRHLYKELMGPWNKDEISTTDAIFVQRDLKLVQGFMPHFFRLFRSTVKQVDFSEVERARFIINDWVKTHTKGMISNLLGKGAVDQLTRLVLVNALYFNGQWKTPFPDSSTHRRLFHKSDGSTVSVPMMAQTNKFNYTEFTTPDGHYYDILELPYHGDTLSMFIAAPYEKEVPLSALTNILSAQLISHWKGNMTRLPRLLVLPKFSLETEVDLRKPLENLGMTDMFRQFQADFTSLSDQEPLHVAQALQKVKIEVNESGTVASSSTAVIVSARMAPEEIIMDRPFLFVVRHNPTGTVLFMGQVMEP

## CCN(CCN(CC)S(=O)(=O)c1cc(F)c(O)c(F)c1)S(=O)(=O)c1cc(F)c(O)c(F)c1 [compound 13, bis-3,5-difluoro-4-hydroxybenzenesulfonamide]
Ratio of IC50 values vs 3b
  fold less potent against PAI-1 than the 3,4-dihydroxy version (3b): roughly 15 fold

## O=S(=O)(c1ccc(O)c(O)c1)N1CCN(S(=O)(=O)c2ccc(O)c(O)c2)CC1 [compound 4]
  inhibitory activity towards PAI-1 (in words): lacked significant inhibitory activity towards PAI-1

## CCN(CCN(CC)S(=O)(=O)c1ccc(O)c(O)c1)S(=O)(=O)c1ccc(O)c(O)c1 [3b]
Ratio of IC50 values vs 3a
  increase in inhibitor potency against PAI-1 compared to the non-alkylated version 3a: about 55 fold

## CCN(CCN(CC)S(=O)(=O)c1cc(O)ccc1O)S(=O)(=O)c1cc(O)ccc1O [compound 7]
  inhibitory activity towards PAI-1 (in words): lacked significant potency towards PAI-1
